# Data as given in US9567347B2, “Use of small molecule inhibitors targeting the interaction between RAC GTPase and p67(phox)” (CHILDREN'S HOSPITAL MEDICAL CENTER, priority 2012, dated 2017).
# What was measured:
# [1] = system: fMLP-activated primary murine neutrophils; assay: Nitroblue tetrazolium (NBT) assay; assay type: cell-based, mouse; details: for ROS inhibition (NBT positive cells): 10 μM, FIG. 9
# Experimental: Primary neutrophils from mouse bone marrow were subjected to fMLP stimulation in the presence or absence of various chemicals for 5 min. Cells were stained for NBT activity as previously described in the incorporated materials of Filippi et al. (2004) to reveal relative ROS production.
# To complement the DCFDA based FACS analysis and the luminol chemiluminescence method, nitroblue tetrazolium (NBT) assays were performed in fMLP-activated primary murine neutrophils (FIG. 3C).
# The NBT assay was performed in primary murine neutrophils to measure ROS neutrophil production. […] Each compound was used at 10 μM.
# LPS-induced ALI in mice = details: 5 mg/kg i.p. every 8 hours, 24 hours after LPS
# Experimental: FIG. 8. […] Mice were challenged with LPS or vehicle via intratracheal administration and treated or not with compound 100 (indicated as “NOX2-I”; 5 mg/kg, 3 injections every 8 hours). (A) Isoprostane, as an indication of ROS production, was measured in lung homogenates 24 hours following LPS challenge by ELISA. (B) Lung histology was performed 24 hours after LPS challenge. (n=3 mice per group). Representative images of histology are shown.
# One life-threatening consequence of hemorrhagic shock is acute lung injury (ALI), which is associated with infiltration of neutrophils and release of ROS. A model of LPS-induced ALI was used in mice to test efficacy of the difluoro compound 100 in vivo.
# Mice (N=3 per group) were treated with LPS (100 ng in 80 μl PBS) or PBS (vehicle) employing oral-tracheal intubation. Following challenge, the mice were injected i.p. with 5 mg/kg of compound 100, every 8 hours. The relative level of ROS release in the lungs upon LPS challenge was assessed by measuring 8-isoprostane by ELISA in lung tissue homogenates. Isoprostanes are a family of eicosanoids produced by the oxidation of tissue phospholipids by oxygen radicals. The amount of 8-isoprostane generated is thus an indication of ROS production.
# [2] = system: fMLP-stimulated differentiated HL-60 cells; assay: H2-DCFDA FACS ROS production assay in fMLP-stimulated differentiated HL-60 cells; assay type: cell-based, human; details: treated 2 hours, FIG. 5B
# Experimental: HL-60 cells were propagated in RPMI 1640 medium containing 10% heat inactivated fetal bovine serum, 2 mM L-glutamine, 100 U/mL penicillin/streptomycin at 37° C. in air containing 5% CO2. For differentiation, HL-60 cells were cultured in 1.3% dimethyl sulfoxide (DMSO) as previously described (Servant, G., et al. (1999) Mol Biol Cell 10, 1163-1178, hereby incorporated by reference in its entirety). Primary murine neutrophils were isolated from C57Bl/6 mouse bone marrow according to a published protocol (Filippi et al., (2004) Nat Immunol 5, 744-751, hereby incorporated by reference in its entirety) using a discontinuous Percoll (Pharmacia) gradient and were utilized immediately in experiments. Human neutrophils were obtained from fresh blood (IRB #2010-1855, Cincinnati Children's Hospital medical Center) following a well established protocol using density gradient separation from whole blood (Oh et al. (2008) J Vis Exp., 17, pii: 745, hereby incorporated by reference in its entirety).
# (§1) Cells (5×10^5) were harvested and processed for Annexin V/7AAD staining according to manufacturer's protocol (Becton Dickinson). Flow cytometry data were acquired on a FACS Canto bench-top flow cytometer (Becton Dickinson) and the cell cycle distributions were determined by […] using Flo-Jo software (Bosco et al (2010) Blood 115, 3320-3328, hereby incorporated by reference in its entirety). For ROS production assay, primary murine neutrophils or dHL60 cells were incubated with compound for 2 hours prior to addition of H2-DCFDA according to manufacturer's instructions (Molecular Probes). Cells were then stimulated with 10 μM fMLP (Sigma), 1 mM CaCl2, and 1.5 mM MgCl2 for 15 minutes prior to wash and FACS analysis for mean fluorescence intensity. Non-fMLP stimulated control values were subtracted from all samples before normalization to fMLP-stimulated, vehicle control treated sample in order to display percent ROS inhibition.
# To validate the hits from preliminary screening in cells, several cellular functional assays were performed using different cell types to measure the effect of compounds on inhibition of ROS production. ROS levels were first analyzed by fluorescence-activated cell sorting (FACS) in HL-60 pre-incubated with compounds for 2 hr prior to stimulation of ROS production. The p67^phox inhibitor, Phox-I1, was tested against NAC (a ROS scavenger), DPI (a broad range inhibitor of NADPH oxidase), and NSC23766 (a Rac-GTP inhibitor; FIG. 2A). […] H2O2 added to the cells was included as a positive control for ROS measurement. Second, to test the capacity of Phox-I1 to inhibit ROS production in a primary cell context, primary murine neutrophils isolated from mouse bone marrow were treated with increasing concentrations of Phox-I1 and the efficacy of inhibition of fMLP-stimulated ROS production was analyzed. DPI treatment was included as a positive control for inhibition of ROS production (FIG. 2B). […] Next, to ascertain the optimal effective dose for ROS inhibition in cells, a dose titration series of Phox-I1 was administered to dHL-60 cells (FIG. 2C).
# neutrophils = assay: toxicity to neutrophils; assay type: cell-based, mouse
# dHL-60 cells [3] = assay: antioxidant (ROS scavenger) test in dHL-60 cells pre-stimulated with fMLP; assay type: cell-based, human; details: fMLP 30 min prior to treatment
# Experimental: (A) Apoptosis analysis by FACS of HL-60 cells treated with compound or vehicle control for 2 hours prior to 7-AAD and Annexin V staining. (B) HL-60 cells from A were harvested and lysates were immunoblotted for levels of pPAK, and actin was used as a control for loading. (C) F-actin reorganization in freshly isolated fMLP-stimulated primary murine neutrophils was analyzed. […] Cells were exposed to a 10 μM dose of Phox-I1, Phox-I2, and Analog 13, and 200 nM nocodazole. (D) The effect of Phox-I on NOX4 mediated ROS production was tested in primary murine neutrophils transfected with a NOX4 expressing plasmid. 10 μM Phox-I1 was applied to the cells for 30 min prior to ROS assay by luminol chemiluminescence in the presence of HRP. The fMLP-stimulated ROS activity in the presence or absence of 10 uM Phox-I1 was measured in parallel. (E) The antioxidant abilities of these lead compounds were tested by prestimulating dHL-60 cells with fMLP for 30 minutes prior to treatment with Phox-I1 or Phox-I2. Levels of superoxide were analyzed by DCFDA assay and FACS. NAC, apocyanin, DPI, and NSC23766 treated cells served as controls. […] (G) For stability assay, DMSO-differentiated HL-60 cells were treated with 20 μM dose of compound for the indicated time period prior to fMLP stimulation and DCFDA ROS production assay by FACS analysis.
# Phox-I1 was then applied to primary murine neutrophils expressing the constitutively active NOX4. […] To further rule out that Phox-I1 and Phox-I2 may simply act as scavengers of ROS, dHL-60 cells were pre-stimulated with fMLP for 30 min prior to treatment with Phox-I1 or Phox-I2.
# dHL-60 cells [4] = assay: DCFDA ROS assay after wash and recovery (affinity assay); assay type: cell-based, human; details: 2 hr treatment, recovery 4 hr or 2 hr
# Experimental: (A) Apoptosis analysis by FACS of HL-60 cells treated with compound or vehicle control for 2 hours prior to 7-AAD and Annexin V staining. (B) HL-60 cells from A were harvested and lysates were immunoblotted for levels of pPAK, and actin was used as a control for loading. (C) F-actin reorganization in freshly isolated fMLP-stimulated primary murine neutrophils was analyzed. […] Cells were exposed to a 10 μM dose of Phox-I1, Phox-I2, and Analog 13, and 200 nM nocodazole. (D) The effect of Phox-I on NOX4 mediated ROS production was tested in primary murine neutrophils transfected with a NOX4 expressing plasmid. 10 μM Phox-I1 was applied to the cells for 30 min prior to ROS assay by luminol chemiluminescence in the presence of HRP. The fMLP-stimulated ROS activity in the presence or absence of 10 uM Phox-I1 was measured in parallel. (E) The antioxidant abilities of these lead compounds were tested by prestimulating dHL-60 cells with fMLP for 30 minutes prior to treatment with Phox-I1 or Phox-I2. Levels of superoxide were analyzed by DCFDA assay and FACS. NAC, apocyanin, DPI, and NSC23766 treated cells served as controls. (F) For affinity assay, DMSO-differentiated HL-60 cells were treated with standard effective dose of indicated compound for 2 hours, washed, and allowed to recover in normal media for 4 hours or 2 hours prior to fMLP stimulation and DCFDA ROS production assay by FACS analysis. (G) For stability assay, DMSO-differentiated HL-60 cells were treated with 20 μM dose of compound for the indicated time period prior to fMLP stimulation and DCFDA ROS production assay by FACS analysis.
# Next, a stability experiment was performed to determine the duration of effectiveness of the compound in suppressing neutrophils. To analyze the relative affinities of these compounds for the p67^phox target in cells, DCFDA ROS production assays were performed in dHL-60 cells treated with compound for 2 hr followed by wash and recovery for 4 hr or 2 hr in normal media prior to ROS production analysis.
# [5] = system: undifferentiated HL-60 cells; assay: apoptosis analysis by FACS (Annexin V / 7-AAD); assay type: cell-based, human; details: 20 or 100 μM
# Experimental: as §1
# In order to determine potency and cytotoxicity of Phox-I1 and Phox-I2, the levels of apoptosis were assessed in undifferentiated HL-60 cells treated with 20 or 100 μM Phox-I1, Phox-I2, or NSC23766 by FACS analysis for Annexin V (FIG. 4A).
# Pak = assay: immunoblot of phosphorylated Pak; assay type: cell-based, human; details: 18 hr treatment
# Experimental: Whole-cell lysates were prepared by cell extraction using lysis buffer containing 20 mM Tris-HCl (pH 7.6), 100 mM NaCl, 10 mM MgCl2, 1% Triton X-100, 0.2% sodium deoxycholate, 1 mM phenylmethylsulfonyl fluoride, 10 μg/mL of leupeptin, 1 μg/mL of aprotinin, and 1 mM dithiothreitol for 30 min. Equal amounts of protein, as determined by Bradford assay, were resolved by SDS-PAGE. Specific proteins were detected by standard 9 immunoblotting procedures using the following primary antibodies: (Cell Signaling, 1:500 dilution) phospho-PAK1 (Ser144)/PAK2 (Ser141), (Sigma-Aldrich 1:500) β-Actin.
# To analyze the biochemical specificity of these lead inhibitors on the effector pathways of active Rac1, undifferentiated HL-60 cells were treated with Phox-I1, Phox-I2, or NSC23766 for 18 hr. Immunoblot of the cell lysates was performed to probe the activity of Pak, a Rac effector other than p67^phox (FIG. 4B).
# [6] = system: primary murine neutrophils; assay: F-actin immunofluorescence, polarization upon fMLP stimulation; assay type: cell-based, mouse; details: 200 nM; control 80%
# Experimental: Cells were pretreated with compound for 40 minutes prior to wash, and resuspended in HBSS with compound. Cells were allowed to adhere to fibronectin (Sigma Aldrich) coated glass coverslips (15 min) and then stimulated with 100 nM fMLP (3 min). Coverslips were then fixed with 3.7% paraformaldehyde (Sigma Aldrich) and then staining for […] was performed with rhodamine phalloidin per the manufacturer's instructions (Molecular Probes). Another method of addressing Rac-signaling specificity in neutrophils is by monitoring their ability to polarize actin to the leading edge upon fMLP stimulation. Neither Phox-I1, Phox-I2, nor an analog 13 (all at 10 μM), were able to block the Rac-mediated dynamic process of F-actin polarization to the leading edge of primary murine neutrophils as observed by F-actin immunofluorescence imaging (FIG. 4C, left panel). F-actin polarization was evident in about 80% of each treatment group of cells as in the control, untreated cells (FIG. 4C, right panel).
smiles,measurement,setting,value
Fc1cccc(C2Nc3ccc(F)cc3C3C=CCC32)c1 (centres unmarked) [Compound 100],"superoxide inhibition (NBT), Phox-I2 analogs",[1]; FIG. 5C,profound superoxide inhibition
same,"lung histology: neutrophil infiltration, alveoli wall thickness, lung architecture",LPS-induced ALI in mice,attenuated
same,"ROS inhibitory activity, Phox-I2 analogs",[2],retain activity
Fc1cccc([C@H]2Nc3ccc(F)cc3[C@@H]3OCCC[C@H]23)c1 [Compound 101],ROS inhibition (NBT positive cells),[1],highest level of ROS inhibition
same,"ROS inhibition, dose response (NBT)","[1]; 0.1 to 10 μM, FIG. 10",most potent ROS inhibitor
Fc1cccc([C@@H]2Nc3ccc(Br)cc3[C@@H]3C=CC[C@@H]32)c1 [Compound 102],ROS inhibition (NBT positive cells),[1],highest level of ROS inhibition
Fc1ccc2c(c1)[C@@H]1C=CC[C@@H]1[C@H](c1ccc(Cl)s1)N2 [Compound 103],ROS inhibition (NBT positive cells),[1],highest level of ROS inhibition
Fc1ccc2c(c1)[C@@H]1C=CC[C@@H]1[C@H](c1cccc(Cl)c1)N2 [Compound 106],ROS inhibition (NBT positive cells),[1],highest level of ROS inhibition
Fc1cccc(C2Nc3ccc(F)cc3C3C=CCCC32)c1 (centres unmarked) [Compound 109],toxicity to neutrophils,neutrophils,toxic to neutrophils
"c1ccc2c(c1)[I+]c1ccccc1-2 [DPI, diphenyleneiodonium]",levels of superoxide already produced,dHL-60 cells [3],do not affect
"CC(=O)N[C@@H](CS)C(=O)O [NAC, reference compound]",ROS inhibition after wash,dHL-60 cells [4],retained the ability to inhibit ROS production
"CCN(CC)CCCC(C)Nc1nc(C)cc(Nc2ccc3nc(C)cc(N)c3c2)n1 (centres unmarked) [NSC23766, reference compound]",levels of superoxide already produced,dHL-60 cells [3],do not affect
same,cell apoptosis (Annexin V),[5],no detectable effect on cell apoptosis
same,phosphorylated Pak levels,Pak,abrogated
same,ROS inhibition after wash,dHL-60 cells [4],retained the ability to inhibit ROS production
"COC(=O)Nc1nc2ccc(C(=O)c3cccs3)cc2[nH]1 [Nocodazole, reference compound]",cells with F-actin polarization,[6],~20%
COc1cc(C(C)=O)ccc1O [apocyanin],levels of superoxide already produced,dHL-60 cells [3],do not affect
